From ChEMBL document CHEMBL5653631, “A Potent and Selective ULK1 Inhibitor Suppresses Autophagy and Sensitizes Cancer Cells to Nutrient Stress” (iScience, 2018)
Values belong to the molecule of their own block, whether it stands above or below them.

What was measured:
[1] = target: Ribosomal protein S6 kinase alpha-3 (Homo sapiens) (UniProt P51812); test: Inhibition of human recombinant RSK2 at 500 nM related to control ULK1
[2] = target: T1, Ephrin type-A receptor 8 (Homo sapiens) (UniProt P29322); test: Inhibition of human recombinant EphA8 at 15 nM related to control ULK1
T1 sequence (whole entry): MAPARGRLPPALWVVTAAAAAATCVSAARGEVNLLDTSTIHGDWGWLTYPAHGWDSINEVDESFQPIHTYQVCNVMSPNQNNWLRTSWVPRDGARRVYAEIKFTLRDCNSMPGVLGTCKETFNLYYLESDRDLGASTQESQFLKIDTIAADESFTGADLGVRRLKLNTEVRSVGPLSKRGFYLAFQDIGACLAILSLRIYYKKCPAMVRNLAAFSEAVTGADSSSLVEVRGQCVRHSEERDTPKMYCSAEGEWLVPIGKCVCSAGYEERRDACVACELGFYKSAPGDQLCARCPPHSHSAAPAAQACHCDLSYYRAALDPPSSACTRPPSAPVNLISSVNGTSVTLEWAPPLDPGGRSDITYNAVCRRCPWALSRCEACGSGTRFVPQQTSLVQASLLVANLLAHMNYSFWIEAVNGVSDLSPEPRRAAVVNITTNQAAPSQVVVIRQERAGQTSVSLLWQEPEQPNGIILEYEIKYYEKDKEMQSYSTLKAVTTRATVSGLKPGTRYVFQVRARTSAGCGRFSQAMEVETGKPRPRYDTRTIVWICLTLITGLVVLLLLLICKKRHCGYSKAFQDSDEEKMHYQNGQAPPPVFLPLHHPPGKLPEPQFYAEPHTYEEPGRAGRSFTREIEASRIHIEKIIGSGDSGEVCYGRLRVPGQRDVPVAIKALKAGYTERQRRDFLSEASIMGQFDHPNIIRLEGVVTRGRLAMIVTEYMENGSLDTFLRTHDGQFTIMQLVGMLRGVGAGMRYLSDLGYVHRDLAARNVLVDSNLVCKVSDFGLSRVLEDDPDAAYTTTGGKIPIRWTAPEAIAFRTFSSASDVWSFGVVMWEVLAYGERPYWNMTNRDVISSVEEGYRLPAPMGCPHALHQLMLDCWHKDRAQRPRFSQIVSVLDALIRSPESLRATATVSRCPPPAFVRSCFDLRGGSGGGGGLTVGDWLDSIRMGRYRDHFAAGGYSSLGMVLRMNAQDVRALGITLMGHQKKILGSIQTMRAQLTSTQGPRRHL

[3] = target: Serine/threonine-protein kinase VRK2 (Homo sapiens) (UniProt Q86Y07); test: Inhibition of human recombinant VRK2 at 15 nM in presence of ATP by radiometric assay relative to control
Sequence of Serine/threonine-protein kinase VRK2 (Homo sapiens) (Q86Y07 whole entry): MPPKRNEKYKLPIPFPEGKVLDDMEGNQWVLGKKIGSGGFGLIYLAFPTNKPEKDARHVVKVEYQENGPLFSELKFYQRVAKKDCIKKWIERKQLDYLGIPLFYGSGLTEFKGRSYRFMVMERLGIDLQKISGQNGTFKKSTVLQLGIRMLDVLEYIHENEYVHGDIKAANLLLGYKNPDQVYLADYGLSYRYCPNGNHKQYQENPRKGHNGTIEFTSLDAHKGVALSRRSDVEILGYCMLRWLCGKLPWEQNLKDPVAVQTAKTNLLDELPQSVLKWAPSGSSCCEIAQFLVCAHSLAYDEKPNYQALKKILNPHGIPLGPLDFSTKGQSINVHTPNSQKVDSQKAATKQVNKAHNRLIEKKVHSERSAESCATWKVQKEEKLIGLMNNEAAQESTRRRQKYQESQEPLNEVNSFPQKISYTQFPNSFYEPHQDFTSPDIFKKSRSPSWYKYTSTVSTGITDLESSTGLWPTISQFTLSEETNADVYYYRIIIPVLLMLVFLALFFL

[4] = target: Serine/threonine-protein kinase N1 (Homo sapiens) (UniProt Q16512); test: Inhibition of human recombinant PKN1 at 40 nM in presence of ATP by radiometric assay relative to control
Sequence of Serine/threonine-protein kinase N1 (Homo sapiens) (Q16512 2-942 limits assumed): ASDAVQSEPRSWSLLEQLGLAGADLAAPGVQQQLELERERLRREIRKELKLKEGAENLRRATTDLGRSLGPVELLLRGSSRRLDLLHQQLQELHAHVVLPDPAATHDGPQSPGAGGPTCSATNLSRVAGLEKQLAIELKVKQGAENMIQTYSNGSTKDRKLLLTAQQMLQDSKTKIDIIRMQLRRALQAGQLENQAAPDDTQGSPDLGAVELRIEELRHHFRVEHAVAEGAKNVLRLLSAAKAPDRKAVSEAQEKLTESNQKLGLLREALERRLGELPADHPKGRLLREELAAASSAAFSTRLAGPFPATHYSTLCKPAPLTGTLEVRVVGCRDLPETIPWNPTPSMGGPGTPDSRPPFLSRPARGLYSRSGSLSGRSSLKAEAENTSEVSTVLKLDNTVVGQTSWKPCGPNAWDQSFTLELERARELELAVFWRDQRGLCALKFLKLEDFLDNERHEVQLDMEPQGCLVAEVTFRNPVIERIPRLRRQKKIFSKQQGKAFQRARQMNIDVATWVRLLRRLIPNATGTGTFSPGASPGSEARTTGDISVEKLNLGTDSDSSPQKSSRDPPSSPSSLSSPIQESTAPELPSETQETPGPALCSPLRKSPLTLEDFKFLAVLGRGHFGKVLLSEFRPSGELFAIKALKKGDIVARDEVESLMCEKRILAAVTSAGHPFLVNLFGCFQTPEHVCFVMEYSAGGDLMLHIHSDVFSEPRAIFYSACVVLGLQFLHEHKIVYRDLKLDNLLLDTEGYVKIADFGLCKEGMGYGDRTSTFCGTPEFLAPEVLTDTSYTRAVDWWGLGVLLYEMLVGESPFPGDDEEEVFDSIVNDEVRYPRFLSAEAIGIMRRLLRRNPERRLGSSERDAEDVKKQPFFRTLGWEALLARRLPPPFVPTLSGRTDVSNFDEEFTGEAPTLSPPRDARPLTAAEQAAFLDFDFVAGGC

[5] = target: T2, Mitogen-activated protein kinase kinase kinase kinase 2 (Homo sapiens) (UniProt Q12851); test: Inhibition of human recombinant GCK at 40 nM in presence of ATP by radiometric assay relative to control
T2 sequence (whole entry): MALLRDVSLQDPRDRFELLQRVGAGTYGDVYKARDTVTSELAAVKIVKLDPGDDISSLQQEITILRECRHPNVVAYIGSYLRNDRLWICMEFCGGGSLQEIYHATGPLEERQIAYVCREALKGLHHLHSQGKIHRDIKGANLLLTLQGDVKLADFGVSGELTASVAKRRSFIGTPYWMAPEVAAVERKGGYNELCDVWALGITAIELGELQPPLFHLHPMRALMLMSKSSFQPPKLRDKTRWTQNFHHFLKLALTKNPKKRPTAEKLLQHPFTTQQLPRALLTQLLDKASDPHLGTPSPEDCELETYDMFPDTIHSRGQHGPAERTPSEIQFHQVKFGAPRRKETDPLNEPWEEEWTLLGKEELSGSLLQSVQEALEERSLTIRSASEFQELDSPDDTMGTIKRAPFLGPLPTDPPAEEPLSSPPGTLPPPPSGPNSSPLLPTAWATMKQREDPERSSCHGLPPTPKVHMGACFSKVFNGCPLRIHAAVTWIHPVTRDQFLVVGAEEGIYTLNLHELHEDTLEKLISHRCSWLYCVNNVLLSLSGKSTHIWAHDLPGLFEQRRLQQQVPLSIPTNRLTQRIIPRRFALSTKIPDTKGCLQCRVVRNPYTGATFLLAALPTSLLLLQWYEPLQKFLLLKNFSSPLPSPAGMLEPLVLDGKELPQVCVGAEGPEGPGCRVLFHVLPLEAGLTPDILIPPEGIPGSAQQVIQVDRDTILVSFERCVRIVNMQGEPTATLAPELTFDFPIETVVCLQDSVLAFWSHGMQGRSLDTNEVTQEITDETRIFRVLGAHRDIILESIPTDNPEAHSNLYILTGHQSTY

[6] = target: T3, Serine/threonine-protein kinase Nek9 (Homo sapiens) (UniProt Q8TD19); test: Inhibition of human recombinant NEK9 at 40 nM in presence of ATP by radiometric assay relative to control
T3 sequence (whole entry): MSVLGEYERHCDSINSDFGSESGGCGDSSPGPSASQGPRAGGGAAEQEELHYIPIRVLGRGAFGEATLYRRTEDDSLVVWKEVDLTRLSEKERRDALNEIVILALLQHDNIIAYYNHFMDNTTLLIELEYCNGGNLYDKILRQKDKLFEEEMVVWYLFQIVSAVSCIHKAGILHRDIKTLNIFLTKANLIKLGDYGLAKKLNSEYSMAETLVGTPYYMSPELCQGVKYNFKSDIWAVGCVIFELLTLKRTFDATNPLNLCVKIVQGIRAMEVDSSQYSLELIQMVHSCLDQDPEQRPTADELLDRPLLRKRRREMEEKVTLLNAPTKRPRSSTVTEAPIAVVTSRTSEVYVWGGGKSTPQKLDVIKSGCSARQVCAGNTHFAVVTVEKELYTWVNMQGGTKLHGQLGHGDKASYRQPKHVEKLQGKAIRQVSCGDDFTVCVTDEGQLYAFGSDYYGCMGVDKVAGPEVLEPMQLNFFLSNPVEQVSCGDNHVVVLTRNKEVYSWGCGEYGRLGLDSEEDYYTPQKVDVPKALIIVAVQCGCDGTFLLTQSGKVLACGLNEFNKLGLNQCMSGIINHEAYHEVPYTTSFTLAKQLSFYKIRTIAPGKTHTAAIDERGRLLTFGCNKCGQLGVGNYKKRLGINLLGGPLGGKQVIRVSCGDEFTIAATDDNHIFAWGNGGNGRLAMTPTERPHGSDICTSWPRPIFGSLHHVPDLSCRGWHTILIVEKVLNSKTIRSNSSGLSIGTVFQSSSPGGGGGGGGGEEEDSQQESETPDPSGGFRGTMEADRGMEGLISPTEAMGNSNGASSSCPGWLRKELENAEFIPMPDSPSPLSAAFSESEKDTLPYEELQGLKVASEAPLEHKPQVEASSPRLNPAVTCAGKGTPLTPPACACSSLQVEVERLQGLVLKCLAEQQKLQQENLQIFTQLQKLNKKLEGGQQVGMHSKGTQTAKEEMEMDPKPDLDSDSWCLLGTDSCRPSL

Sequence of Ribosomal protein S6 kinase alpha-3 (Homo sapiens) (P51812 whole entry): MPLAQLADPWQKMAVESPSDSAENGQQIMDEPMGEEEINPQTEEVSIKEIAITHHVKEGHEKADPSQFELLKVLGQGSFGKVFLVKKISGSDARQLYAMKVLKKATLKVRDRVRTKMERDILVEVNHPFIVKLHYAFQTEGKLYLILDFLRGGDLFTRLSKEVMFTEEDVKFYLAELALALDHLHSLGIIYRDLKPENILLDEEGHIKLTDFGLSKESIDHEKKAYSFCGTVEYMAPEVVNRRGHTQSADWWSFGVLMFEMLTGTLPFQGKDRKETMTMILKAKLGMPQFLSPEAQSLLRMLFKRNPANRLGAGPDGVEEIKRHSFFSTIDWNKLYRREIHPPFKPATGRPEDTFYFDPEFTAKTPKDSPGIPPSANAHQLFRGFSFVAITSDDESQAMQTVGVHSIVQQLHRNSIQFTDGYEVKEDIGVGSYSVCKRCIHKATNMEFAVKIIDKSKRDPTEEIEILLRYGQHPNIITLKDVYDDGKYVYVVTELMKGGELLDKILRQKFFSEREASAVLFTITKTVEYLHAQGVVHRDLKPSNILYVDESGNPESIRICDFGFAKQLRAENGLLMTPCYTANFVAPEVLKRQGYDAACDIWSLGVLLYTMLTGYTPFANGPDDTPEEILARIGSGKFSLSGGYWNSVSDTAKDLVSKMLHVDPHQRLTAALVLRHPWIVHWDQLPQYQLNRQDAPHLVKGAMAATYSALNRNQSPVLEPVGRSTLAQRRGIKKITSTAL

fold change (FC) [1]: 0.5
Compound: CNC(=O)c1ccccc1Oc1nc(Nc2cc(OC)c(OC)c(OC)c2)ncc1Br

fold change (FC) [2]: 0 | inhibition [3]: 0%
Compound: CC(C)[C@H](NC(=O)c1cc(-c2cnn3cc(-c4ccc(OCCN5CCCCC5)cc4)cnc23)cs1)C(F)(F)F

inhibition [4]: 0% | inhibition [5]: 0%
Compound: O=C(N[C@@H](C1CC1)C(F)(F)F)c1cc(-c2cnn3cc(-c4ccc(F)cc4)cnc23)cs1
inhibition [6]: 5%
